Measurements taken from US20230085307A1, “PYRIDAZINONE COMPOUND AND HERBICIDE” (NISSAN CHEMICAL CORPORATION, priority 2019, published 2023).

Experiments:
chickweed [1] = test: Test Example 4: herbicidal effect by soil treatment (Table 19, symbol P); assay type: in vivo, common chickweed (Stellaria media)
Summary of the method: (§1)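 Soil-surface application: an emulsion agent diluted with water to the predetermined dose is sprayed uniformly over seeds lying under roughly 1.5 cm of sterilized diluvial soil. Boxes stay in a greenhouse at 25° C. to 30° C. Three weeks later, each species is graded on previously defined criteria.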

wild oat [2] = test: Test Example 4: herbicidal effect by soil treatment (Table 19, symbol I); assay type: in vivo, wild oat (Avena fatua)
Summary of the method: as §1

lambsquarters [3] = test: Test Example 4: herbicidal effect by soil treatment (Table 19, symbol O); assay type: in vivo, lambsquarters (Chenopodium album)
Summary of the method: as §1

velvetleaf [4] = test: Test Example 5: herbicidal effect by foliage application, plastic box (Table 20, symbol M); assay type: in vivo, velvetleaf (Abutilon theophrasti); conditions: foliage application, 320 g/ha, 3 weeks after application
Summary of the method: (§2)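 Sow seeds spot-wise in sterilized diluvial soil; cover with ~1.5 cm soil. Grow 14 days in greenhouse, 25° C. to 30° C. Spray foliage with emulsion diluted to predetermined amount. Rate effect after 3 weeks.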

oval-leafed pondweed = test: Test Example 2: herbicidal activity, application during weed generation under submerged conditions (Table 17, symbol C); assay type: in vivo, oval-leafed pondweed (Monochoria vaginalis); conditions: AAH 320 g/ha; application during weed generation, submerged conditions
Summary of the method: (§3)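 Mixed weed seedlings in alluvial soil under a 4 cm water layer, greenhouse-grown at 25–30° C. Compound given as a diluted emulsion into the floodwater at the 1–2 leaf stage; response graded after three weeks.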

rice flat sedge = test: Test Example 3: herbicidal effect by foliage application, Wagner pot (Table 18, symbol E); assay type: in vivo, rice flat sedge (Cyperus iria); conditions: 320 g/ha
Summary of the method: (§4)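 Plants were sown in alluvial soil held under 0.1–0.5 cm standing water and grown 14 days in a greenhouse at 25–30 °C. An emulsifiable formulation, water-diluted to the set dose, was then sprayed onto the foliage, and effects were scored three weeks later using previously defined criteria.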

redroot pigweed [5] = test: Test Example 4: herbicidal effect by soil treatment (Table 19, symbol N); assay type: in vivo, redroot pigweed (Amaranthus retroflexus)
Summary of the method: as §1

late watergrass = test: Test Example 2: herbicidal activity, application during weed generation under submerged conditions (Table 17, symbol A); assay type: in vivo, late watergrass (Echinochloa oryzicola); conditions: AAH 320 g/ha; application during weed generation, submerged conditions
Summary of the method: as §3

windgrass [6] = test: Test Example 5: herbicidal effect by foliage application, plastic box (Table 20, symbol L); assay type: in vivo, windgrass (Apera spica-venti); conditions: 320 g/ha
Summary of the method: as §2

Italian ryegrass [7] = test: Test Example 4: herbicidal effect by soil treatment (Table 19, symbol K); assay type: in vivo, Italian ryegrass (Lolium multiflorum)
Summary of the method: as §1

velvetleaf [8] = test: Test Example 4: herbicidal effect by soil treatment (Table 19, symbol M); assay type: in vivo, velvetleaf (Abutilon theophrasti)
Summary of the method: as §1

wild oat [9] = test: Test Example 5: herbicidal effect by foliage application, plastic box (Table 20, symbol I); assay type: in vivo, wild oat (Avena fatua); conditions: 320 g/ha
Summary of the method: as §2

Italian ryegrass [10] = test: Test Example 5: herbicidal effect by foliage application, plastic box (Table 20, symbol K); assay type: in vivo, Italian ryegrass (Lolium multiflorum); conditions: 320 g/ha
Summary of the method: as §2

blackgrass [11] = test: Test Example 4: herbicidal effect by soil treatment (Table 19, symbol J); assay type: in vivo, blackgrass (Alopecurus myosuroides)
Summary of the method: as §1

green foxtail [12] = test: Test Example 4: herbicidal effect by soil treatment (Table 19, symbol G); assay type: in vivo, green foxtail (Setaria viridis)
Summary of the method: as §1

barnyard grass [13] = test: Test Example 3: herbicidal effect by foliage application, Wagner pot (Table 18, symbol H); assay type: in vivo, barnyard grass (Echinochloa crus-galli); conditions: 320 g/ha
Summary of the method: as §4

southern crabgrass [14] = test: Test Example 4: herbicidal effect by soil treatment (Table 19, symbol F); assay type: in vivo, southern crabgrass (Digitaria ciliaris)
Summary of the method: as §1

southern crabgrass [15] = test: Test Example 5: herbicidal effect by foliage application, plastic box (Table 20, symbol F); assay type: in vivo, southern crabgrass (Digitaria ciliaris); conditions: 320 g/ha
Summary of the method: as §2

lambsquarters [16] = test: Test Example 5: herbicidal effect by foliage application, plastic box (Table 20, symbol O); assay type: in vivo, lambsquarters (Chenopodium album); conditions: 320 g/ha
Summary of the method: as §2

persian speedwell [17] = test: Test Example 5: herbicidal effect by foliage application, plastic box (Table 20, symbol R); assay type: in vivo, Persian speedwell (Veronica persica); conditions: 320 g/ha
Summary of the method: as §2

blackgrass [18] = test: Test Example 5: herbicidal effect by foliage application, plastic box (Table 20, symbol J); assay type: in vivo, blackgrass (Alopecurus myosuroides); conditions: 320 g/ha
Summary of the method: as §2

green foxtail [19] = test: Test Example 5: herbicidal effect by foliage application, plastic box (Table 20, symbol G); assay type: in vivo, green foxtail (Setaria viridis); conditions: 320 g/ha
Summary of the method: as §2

barnyard grass [20] = test: Test Example 4: herbicidal effect by soil treatment (Table 19, symbol H); assay type: in vivo, barnyard grass (Echinochloa crus-galli)
Summary of the method: as §1

barnyard grass [21] = test: Test Example 5: herbicidal effect by foliage application, plastic box (Table 20, symbol H); assay type: in vivo, barnyard grass (Echinochloa crus-galli); conditions: 320 g/ha
Summary of the method: as §2

persian speedwell [22] = test: Test Example 4: herbicidal effect by soil treatment (Table 19, symbol R); assay type: in vivo, Persian speedwell (Veronica persica)
Summary of the method: as §1

Chinese sprangletop = test: Test Example 3: herbicidal effect by foliage application, Wagner pot (Table 18, symbol D); assay type: in vivo, chinese sprangletop (Leptochloa chinensis); conditions: 320 g/ha
Summary of the method: as §4

windgrass [23] = test: Test Example 4: herbicidal effect by soil treatment (Table 19, symbol L); assay type: in vivo, windgrass (Apera spica-venti)
Summary of the method: as §1

Japanese bulrush = test: Test Example 2: herbicidal activity, application during weed generation under submerged conditions (Table 17, symbol B); assay type: in vivo, Japanese bulrush (Schoenoplectus juncoides); conditions: AAH 320 g/ha; application during weed generation, submerged conditions
Summary of the method: as §3

redroot pigweed [24] = test: Test Example 5: herbicidal effect by foliage application, plastic box (Table 20, symbol N); assay type: in vivo, redroot pigweed (Amaranthus retroflexus); conditions: 320 g/ha, foliage application after 14-day growth, evaluated three weeks after application
Summary of the method: as §2

chickweed [25] = test: Test Example 5: herbicidal effect by foliage application, plastic box (Table 20, symbol P); assay type: in vivo, common chickweed (Stellaria media); conditions: 320 g/ha, foliage application after 14-day growth, evaluated three weeks after application
Summary of the method: as §2

[26] = foliage application, 3 weeks after application
[27] = amount of applied herbicide 320 g/ha
[28] = foliage application after 14-day growth, evaluated three weeks after application

Compound: CCCC(=O)Oc1c(C)nn(C)c(=O)c1-c1c(-c2ccc(C(F)(F)F)cc2)sc2ccc(F)cc12 [2-021]
- herbicidal effect rating, P: chickweed (chickweed [1]; 320 g/ha): 5 (Herbicidal rate of 90% or more (almost completely withered))
- herbicidal effect rating, I: wild oat (wild oat [2]; 320 g/ha): 0 (Herbicidal rate of 5% or less (almost no effect))
- herbicidal effect rating, O: lambsquarters (lambsquarters [3]; 320 g/ha): 5 (Herbicidal rate of 90% or more (almost completely withered))
- effect on velvetleaf (M) (velvetleaf [4]): 5 (Herbicidal rate of 90% or more (almost completely withered))
- herbicidal effect rating, C: oval-leafed pondweed (oval-leafed pondweed): 0 (Herbicidal rate of 5% or less (almost no effect))
- herbicidal effect on E (rice flat sedge), rating 0-5 (rice flat sedge): 5 (Herbicidal rate of 90% or more (almost completely withered))
- herbicidal effect rating, N: redroot pigweed (redroot pigweed [5]; 320 g/ha): 5 (Herbicidal rate of 90% or more (almost completely withered))
- herbicidal effect rating, A: late watergrass (late watergrass): 0 (Herbicidal rate of 5% or less (almost no effect))
- effect on windgrass (L) (windgrass [6]; [26]): 5 (Herbicidal rate of 90% or more (almost completely withered))
- herbicidal effect rating, K: Italian ryegrass (Italian ryegrass [7]; 320 g/ha): 5 (Herbicidal rate of 90% or more (almost completely withered))
- herbicidal effect rating, M: velvetleaf (velvetleaf [8]; 320 g/ha): 4 (Herbicidal rate of 70% or more and less than 90%)
- effect on wild oat (I) (wild oat [9]; [26]): 5 (Herbicidal rate of 90% or more (almost completely withered))
- effect on Italian ryegrass (K) (Italian ryegrass [10]; [26]): 5 (Herbicidal rate of 90% or more (almost completely withered))
- herbicidal effect rating, J: blackgrass (blackgrass [11]; 320 g/ha): 0 (Herbicidal rate of 5% or less (almost no effect))
- herbicidal effect rating, G: green foxtail (green foxtail [12]; 320 g/ha): 5 (Herbicidal rate of 90% or more (almost completely withered))
- herbicidal effect on H (barnyard grass), rating 0-5 (barnyard grass [13]): 5 (Herbicidal rate of 90% or more (almost completely withered))
- herbicidal effect rating, F: southern crabgrass (southern crabgrass [14]; 320 g/ha): 5 (Herbicidal rate of 90% or more (almost completely withered))
- effect on southern crabgrass (F) (southern crabgrass [15]; [26]): 4 (Herbicidal rate of 70% or more and less than 90%)
- effect on lambsquarters (O) (lambsquarters [16]; [26]): 5 (Herbicidal rate of 90% or more (almost completely withered))
- effect on persian speedwell (R) (persian speedwell [17]; [26]): 5 (Herbicidal rate of 90% or more (almost completely withered))
- effect on blackgrass (J) (blackgrass [18]; [26]): 3 (Herbicidal rate of 40% or more and less than 70%)
- effect on green foxtail (G) (green foxtail [19]; [26]): 5 (Herbicidal rate of 90% or more (almost completely withered))
- herbicidal effect rating, H: barnyard grass (barnyard grass [20]; 320 g/ha): 4 (Herbicidal rate of 70% or more and less than 90%)
- effect on barnyard grass (H) (barnyard grass [21]; [26]): 5 (Herbicidal rate of 90% or more (almost completely withered))
- herbicidal effect rating, R: persian speedwell (persian speedwell [22]; 320 g/ha): 5 (Herbicidal rate of 90% or more (almost completely withered))
- herbicidal effect on D (Chinese sprangletop), rating 0-5 (Chinese sprangletop): 3 (Herbicidal rate of 40% or more and less than 70%)
- herbicidal effect rating, L: windgrass (windgrass [23]; 320 g/ha): 5 (Herbicidal rate of 90% or more (almost completely withered))
- herbicidal effect rating, B: Japanese bulrush (Japanese bulrush): 2 (Herbicidal rate of 20% or more and less than 40%)

Compound: CCCC(=O)Oc1c(C)nn(C)c(=O)c1-c1c(-c2ccccc2OC)sc2c(Cl)cccc12 [4-022]
- Herbicidal effect by soil treatment, P: chickweed (chickweed [1]; [27]): 1 (Herbicidal rate of 5% or more and less than 20%)
- Herbicidal effect by soil treatment, I: wild oat (wild oat [2]; [27]): 0 (Herbicidal rate of 5% or less (almost no effect))
- Herbicidal effect by soil treatment, O: lambsquarters (lambsquarters [3]; [27]): 2 (Herbicidal rate of 20% or more and less than 40%)
- herbicidal effect rating, C: oval-leafed pondweed (oval-leafed pondweed): 0 (Herbicidal rate of 5% or less (almost no effect))
- herbicidal effect on rice flat sedge (E) (rice flat sedge): 4 (Herbicidal rate of 70% or more and less than 90%)
- Herbicidal effect by soil treatment, N: redroot pigweed (redroot pigweed [5]; [27]): 3 (Herbicidal rate of 40% or more and less than 70%)
- herbicidal effect rating, A: late watergrass (late watergrass): 0 (Herbicidal rate of 5% or less (almost no effect))
- herbicidal effect on L: windgrass (evaluation grade 0-5) (windgrass [6]; [28]): 5 (Herbicidal rate of 90% or more (almost completely withered))
- Herbicidal effect by soil treatment, K: Italian ryegrass (Italian ryegrass [7]; [27]): 0 (Herbicidal rate of 5% or less (almost no effect))
- Herbicidal effect by soil treatment, M: velvetleaf (velvetleaf [8]; [27]): 0 (Herbicidal rate of 5% or less (almost no effect))
- herbicidal effect on I: wild oat (evaluation grade 0-5) (wild oat [9]; [28]): 0 (Herbicidal rate of 5% or less (almost no effect))
- herbicidal effect on N: redroot pigweed (evaluation grade 0-5) (redroot pigweed [24]): 3 (Herbicidal rate of 40% or more and less than 70%)
- herbicidal effect on K: Italian ryegrass (evaluation grade 0-5) (Italian ryegrass [10]; [28]): 1 (Herbicidal rate of 5% or more and less than 20%)
- Herbicidal effect by soil treatment, J: blackgrass (blackgrass [11]; [27]): 0 (Herbicidal rate of 5% or less (almost no effect))
- herbicidal effect on P: chickweed (evaluation grade 0-5) (chickweed [25]): 5 (Herbicidal rate of 90% or more (almost completely withered))
- Herbicidal effect by soil treatment, G: green foxtail (green foxtail [12]; [27]): 3 (Herbicidal rate of 40% or more and less than 70%)
- herbicidal effect on barnyard grass (H) (barnyard grass [13]): 5 (Herbicidal rate of 90% or more (almost completely withered))
- Herbicidal effect by soil treatment, F: southern crabgrass (southern crabgrass [14]; [27]): 3 (Herbicidal rate of 40% or more and less than 70%)
- herbicidal effect on F: southern crabgrass (evaluation grade 0-5) (southern crabgrass [15]; [28]): 0 (Herbicidal rate of 5% or less (almost no effect))
- herbicidal effect on O: lambsquarters (evaluation grade 0-5) (lambsquarters [16]; [28]): 0 (Herbicidal rate of 5% or less (almost no effect))
- herbicidal effect on R: persian speedwell (evaluation grade 0-5) (persian speedwell [17]; [28]): 3 (Herbicidal rate of 40% or more and less than 70%)
- herbicidal effect on J: blackgrass (evaluation grade 0-5) (blackgrass [18]; [28]): 0 (Herbicidal rate of 5% or less (almost no effect))
- herbicidal effect on G: green foxtail (evaluation grade 0-5) (green foxtail [19]; [28]): 2 (Herbicidal rate of 20% or more and less than 40%)
- Herbicidal effect by soil treatment, H: barnyard grass (barnyard grass [20]; [27]): 3 (Herbicidal rate of 40% or more and less than 70%)
- herbicidal effect on H: barnyard grass (evaluation grade 0-5) (barnyard grass [21]; [28]): 4 (Herbicidal rate of 70% or more and less than 90%)
- Herbicidal effect by soil treatment, R: persian speedwell (persian speedwell [22]; [27]): 0 (Herbicidal rate of 5% or less (almost no effect))
- herbicidal effect on Chinese sprangletop (D) (Chinese sprangletop): 5 (Herbicidal rate of 90% or more (almost completely withered))
- Herbicidal effect by soil treatment, L: windgrass (windgrass [23]; [27]): 0 (Herbicidal rate of 5% or less (almost no effect))
- herbicidal effect rating, B: Japanese bulrush (Japanese bulrush): 2 (Herbicidal rate of 20% or more and less than 40%)
